Experimental data reported in PMC6008465 (British Journal of Cancer, 2018).
Marks after values point to notes of the source that are not given here.

Assay: Part A pharmacokinetics (plasma and urine, noncompartmental analysis)
Assay type: in vivo, human
Method: In Part A, blood was collected on Cycle 1, Days 1 and 15 at specified intervals prior to, during, and postinfusion (5 min–8 h), and on Days 2, 3, 16, and 17 (24 and 48 h postinfusion). Urine was collected on Cycle 1, Day 1 preinfusion, at 0–8 h, and 8–24 h. In Part B, blood was collected on Cycle 1, Day 1, prior to, during, and at 1–24 h postinfusion. Pharmacokinetic parameters were calculated using noncompartmental analysis.

[1] = Cycle 1 Day 1, 160 mg/m^2 (n=3)
[2] = Cycle 1 Day 1, 320 mg/m^2 (n=7)
[3] = Cycle 1 Day 1, 400 mg/m^2 (n=1)
[4] = Cycle 1 Day 1, 480 mg/m^2 (n=4)
[5] = Cycle 1 Day 15, 20 mg/m^2 (n=3)
[6] = Cycle 1 Day 15, 40 mg/m^2 (n=3)
[7] = Cycle 1 Day 15, 80 mg/m^2 (n=3)
[8] = Cycle 1 Day 15, 160 mg/m^2 (n=3)
[9] = Cycle 1 Day 15, 320 mg/m^2 (n=6)
[10] = Cycle 1 Day 15, 400 mg/m^2 (n=1)
[11] = Cycle 1 Day 15, 480 mg/m^2 (n=4)

Compound: CCNc1cc(O)c2c(c1)/C=C/C[C@H](O)[C@H](O)C(=O)/C=C\[C@@H](C)[C@H](C)OC2=O [E6201, (3S,4R,5Z,8S,9S,11E)-14-(ethylamino)-8,9,16-trihydroxy-3,4-dimethyl-3,4,9,19-tetrahydro-1H-2-benzoxacyclotetradecine-1,7 (8H)-dione]
- Fraction of E6201 excreted in the urine (24-hour collection interval): ≤ 0.21%
- AUC(0-t), mean (%CV) (Cycle 1 Day 1, 20 mg/m^2 (n=4)): 1650 (218) ng·h/mL
- CLR (renal clearance), mean (%CV) (Cycle 1 Day 1, 20 mg/m^2 (n=4)): 10.0 (188) mL/h
- Cmax, mean (%CV) (Cycle 1 Day 1, 20 mg/m^2 (n=4)): 552 (50) ng/mL
- Tmax, median (range) (Cycle 1 Day 1, 20 mg/m^2 (n=4)): 0.5 (0.25–0.5) h
- fe (fraction of drug excreted in urine), mean (%CV) (Cycle 1 Day 1, 20 mg/m^2 (n=4)): 0.0125 (42) %
- t½, mean (Cycle 1 Day 1, 20 mg/m^2, n=2): 1.96^b (--) h
- CL, mean (%CV) (Cycle 1 Day 1, 20 mg/m^2, n=2, %CV 2): 110^b (2) L/h
- Vss, mean (%CV) (Cycle 1 Day 1, 20 mg/m^2, n=2, %CV 28): 135^b (28) L
- AUC(0-t), mean (%CV) (Cycle 1 Day 1, 40 mg/m^2 (n=3)): 2410 (201) ng·h/mL
- CLR (renal clearance), mean (%CV) (Cycle 1 Day 1, 40 mg/m^2 (n=3)): 1.65 (--) mL/h
- Cmax, mean (%CV) (Cycle 1 Day 1, 40 mg/m^2 (n=3)): 870 (70) ng/mL
- Tmax, median (range) (Cycle 1 Day 1, 40 mg/m^2 (n=3)): 0.5 (0.5–0.5) h
- fe (fraction of drug excreted in urine), mean (%CV) (Cycle 1 Day 1, 40 mg/m^2 (n=3)): 0 (--) %
- t½, mean (Cycle 1 Day 1, 40 mg/m^2, n=2): 2.70^b (--) h
- Vss, mean (%CV) (Cycle 1 Day 1, 40 mg/m^2, n=2, %CV 21): 164^b (21) L
- CL, mean (%CV) (Cycle 1 Day 1, 40 mg/m^2, n=2, %CV 25): 103^b (25) L/h
- AUC(0-t), mean (%CV) (Cycle 1 Day 1, 80 mg/m^2 (n=3)): 2520 (63) ng·h/mL
- CL, mean (%CV) (Cycle 1 Day 1, 80 mg/m^2 (n=3)): 68.7 (60) L/h
- CLR (renal clearance), mean (%CV) (Cycle 1 Day 1, 80 mg/m^2 (n=3)): 28.9 (54) mL/h
- Cmax, mean (%CV) (Cycle 1 Day 1, 80 mg/m^2 (n=3)): 3350 (149) ng/mL
- Tmax, median (range) (Cycle 1 Day 1, 80 mg/m^2 (n=3)): 0.5 (0.25–0.5) h
- Vss, mean (%CV) (Cycle 1 Day 1, 80 mg/m^2 (n=3)): 135 (100) L
- fe (fraction of drug excreted in urine), mean (%CV) (Cycle 1 Day 1, 80 mg/m^2 (n=3)): 0.04 (26) %
- t½, mean (Cycle 1 Day 1, 80 mg/m^2 (n=3)): 2.79 (--) h
- AUC(0-t), mean (%CV) [1]: 2770 (36) ng·h/mL
- CL, mean (%CV) [1]: 119 (50) L/h
- CLR (renal clearance), mean (%CV) [1]: 89.7 (299) mL/h
- Cmax, mean (%CV) [1]: 2740 (51) ng/mL
- Tmax, median (range) [1]: 0.5 (0.25–0.5) h
- Vss, mean (%CV) [1]: 216 (55) L
- fe (fraction of drug excreted in urine), mean (%CV) [1]: 0.0567 (186) %
- t½, mean [1]: 3.98 (--) h
- AUC(0-t), mean (%CV) [2]: 10400 (26) ng·h/mL
- CL, mean (%CV) [2]: 57.2 (22) L/h
- CLR (renal clearance), mean (%CV) [2]: 60.0 (659) mL/h
- Cmax, mean (%CV) [2]: 14800 (73) ng/mL
- Tmax, median (range) [2]: 0.25 (0.25–0.5) h
- Vss, mean (%CV) [2]: 89.1 (36) L
- fe (fraction of drug excreted in urine), mean (%CV) [2]: 0.109 (56) %
- t½, mean [2]: 4.00 (--) h
- AUC(0-t), mean (%CV) [3]: 13500 (--) ng·h/mL
- CL, mean (%CV) [3]: 52.8 (--) L/h
- CLR (renal clearance), mean (%CV) [3]: 111 (--) mL/h
- Cmax, mean (%CV) [3]: 19500 (--) ng/mL
- Tmax, median (range) [3]: 0.25 (0.25–0.25) h
- Vss, mean (%CV) [3]: 80.1 (---) L
- fe (fraction of drug excreted in urine), mean (%CV) [3]: 0.21 (--) %
- t½, mean [3]: 6.50 (--) h
- AUC(0-t), mean (%CV) [4]: 10200 (56) ng·h/mL
- CL, mean (%CV) [4]: 101 (44) L/h
- CLR (renal clearance), mean (%CV) [4]: 137 (128) mL/h
- Cmax, mean (%CV) [4]: 8070 (55) ng/mL
- Tmax, median (range) [4]: 0.375 (0.25–0.5) h
- Vss, mean (%CV) [4]: 275 (42) L
- fe (fraction of drug excreted in urine), mean (%CV) [4]: 0.143 (96) %
- t½, mean [4]: 5.97 (--) h
- AUC(0-t), mean (%CV) [5]: 1420 (250) ng·h/mL
- Cmax, mean (%CV) [5]: 895 (228) ng/mL
- Tmax, median (range) [5]: 0.5 (0.25–0.5) h
- CL, mean (%CV) (Cycle 1 Day 15, 20 mg/m^2, n=1): 184^c (--) L/h
- Vss, mean (%CV) (Cycle 1 Day 15, 20 mg/m^2, n=1): 324^ c (--) L
- t½, mean (Cycle 1 Day 15, 20 mg/m^2, n=1): 1.58^c (--) h
- AUC(0-t), mean (%CV) [6]: 2090 (169) ng·h/mL
- Cmax, mean (%CV) [6]: 767 (78) ng/mL
- Tmax, median (range) [6]: 0.5 (0.25–0.5) h
- t½, mean (Cycle 1 Day 15, 40 mg/m^2, n=2): 1.88^ b (--) h
- Vss, mean (%CV) (Cycle 1 Day 15, 40 mg/m^2, n=2, %CV 27): 115^b (27) L
- CL, mean (%CV) (Cycle 1 Day 15, 40 mg/m^2, n=2, %CV 47): 91^b (47) L/h
- AUC(0-t), mean (%CV) [7]: 2540 (66) ng·h/mL
- Cmax, mean (%CV) [7]: 2590 (154) ng/mL
- Tmax, median (range) [7]: 0.25 (0.25–0.5) h
- t½, mean [7]: 5.55 (--) h
- CL, mean (%CV) (Cycle 1 Day 15, 80 mg/m^2, n=2, %CV 67): 76.2^ b (67) L/h
- Vss, mean (%CV) (Cycle 1 Day 15, 80 mg/m^2, n=2, %CV 146): 148^ b (146) L
- AUC(0-t), mean (%CV) [8]: 4300 (32) ng·h/mL
- CL, mean (%CV) [8]: 71.2 (18) L/h
- Cmax, mean (%CV) [8]: 5430 (120) ng/mL
- Tmax, median (range) [8]: 0.25 (0.25–0.5) h
- Vss, mean (%CV) [8]: 110 (74) L
- t½, mean [8]: 4.20 (--) h
- AUC(0-t), mean (%CV) [9]: 11100 (13) ng·h/mL
- CL, mean (%CV) [9]: 49.8 (18) L/h
- Cmax, mean (%CV) [9]: 18000 (64) ng/mL
- Tmax, median (range) [9]: 0.25 (0.25–0.5) h
- Vss, mean (%CV) [9]: 111 (69) L
- t½, mean [9]: 6.83 (--) h
- AUC(0-t), mean (%CV) [10]: 10500 (--) ng·h/mL
- Cmax, mean (%CV) [10]: 21600 (--) ng/mL
- Tmax, median (range) [10]: 0.25 (0.25–0.25) h
- AUC(0-t), mean (%CV) [11]: 11300 (73) ng·h/mL
- CL, mean (%CV) [11]: 82 (38) L/h
- Cmax, mean (%CV) [11]: 12200 (88) ng/mL
- Tmax, median (range) [11]: 0.375 (0.25–0.5) h
- Vss, mean (%CV) [11]: 217 (84) L
- t½, mean [11]: 4.78 (--) h
- Accumulation on multiple dosing (Day 15 vs Day 1, once-weekly dosing): Lack of E6201 accumulation
- Mean clearance (CL), range over dose groups (Part A): 49.8 to 184 L/h
- Renal clearance (CLR), range over dose groups (Part A): 1.65 to 137 mL/h
- Time of peak E6201 concentration (mid-to-end of infusion) (Part A, 30-min IV infusion): 0.25 to 0.5 h
